The record followed here is ChEMBL document CHEMBL1121470, “Synthesis and antiinflammatory activity of some 2-(substituted-pyridinyl)benzimidazoles” (J Med Chem, 1980).

Series [1] relates to Rattus norvegicus. The series can be described thus: Antiinflammatory activity by carrageenan-induced rat paw edema assay after 3 hr at 100 mg/kg concentration administered perorally. It is filed as functional. Conditions: route oral.
In series [2] the test system is Rattus norvegicus. The series can be described thus: Antiinflammatory activity was evaluated by carrageenan-induced rat paw edema assay after 3 hr at 100 mg/kg concentration administered perorally. Format: functional. Conditions: route oral.
The test system of series [3] is Rattus norvegicus. Put plainly: Antiinflammatory activity was evaluated by contund edema after 3 hr at 200 mg/kg concentration administered perorally. It is filed as functional. To be noted: route oral.
The next series has as its system Mus musculus. The series can be described thus: Compound was evaluated for analgesia at 100 mg/kg when administered perorally (- = positive mice</=1). It is filed as functional. Conditions: route oral.
The nature of series [4]: Compound was evaluated for lethal dose in mice when administarted intraperitoneally. It is filed as toxicity, organism-based. Conditions: mouse, in vivo, ip.

By inhibition in vivo is commonly meant the relative decrease from the control value, in per cent. One may read the LD50 as the dose expected to kill half of the subjects tested.

Where only a bound is given, the exact number is not on record here.

As for `Cc1ccc(-c2nc3ccccc3n2CC(=O)N2CCN(CCO)CC2)nc1`, in the series with Rattus norvegicus [1], the inhibition in vivo at 100 mg/kg was 14%.

In the case of `CCOC(=O)c1cccc(-c2nc3ccccc3[nH]2)n1`, the inhibition in vivo at 100 mg/kg in the series with Rattus norvegicus [2] came out at 31%.

`CCc1cccc(-c2nc3cc(OC)ccc3[nH]2)n1`: the inhibition in vivo at 200 mg/kg in the series with Rattus norvegicus [3] came out at 87%. Also, the inhibition in vivo at 100 mg/kg with Rattus norvegicus [1] was found to be 52%. Besides, the Activity in the series on Mus musculus was 1. The same compound came in with an LD50 in series [4] of over 300 mg/kg.

As to `CCc1cccc(-c2nc3ccccc3[nH]2)n1`, in the series on Rattus norvegicus [2], the inhibition in vivo at 100 mg/kg is 41%. For the same compound, in the series with Rattus norvegicus [3], the inhibition in vivo at 200 mg/kg was found to be 85%. In series [4], this compound displayed an LD50 of over 300 mg/kg.

Consider `Cc1cccc(-c2nc3cc(Cl)ccc3[nH]2)n1`, for which the inhibition in vivo at 200 mg/kg in the series on Rattus norvegicus [3] stood at 95%. The inhibition in vivo at 100 mg/kg in the series on Rattus norvegicus [1] was 39%. The Activity in the series on Mus musculus is on record as 1. Moreover, in series [4], the LD50 is 1230 mg/kg.

`Cc1cccc(-c2nc3cc(O)ccc3[nH]2)n1`: the inhibition in vivo at 100 mg/kg in the series with Rattus norvegicus [1] turned out to be 6%.

`CCOC(=O)c1ccc(-c2nc3ccccc3[nH]2)nc1`: in the series with Rattus norvegicus [2], the inhibition in vivo at 100 mg/kg is -16%.

On to `O=C(Cn1c(-c2ccccn2)nc2ccccc21)N1CCN(CCO)CC1`, for which the inhibition in vivo at 100 mg/kg in the series on Rattus norvegicus [1] is -4%.

Turning to `CCc1ccc(-c2nc3cc(Cl)ccc3[nH]2)nc1`, in the series with Rattus norvegicus [1], the inhibition in vivo at 100 mg/kg is -2%.

In the case of `COc1ccc2[nH]c(-c3ccccn3)nc2c1`, the inhibition in vivo at 100 mg/kg in the series with Rattus norvegicus [2] came out at 34%.

`CCc1ccc(-c2nc3ccccc3n2Cc2ccccc2)nc1`: the inhibition in vivo at 100 mg/kg in the series with Rattus norvegicus [1] was -18%.

For the compound `Clc1cccc(-c2nc3ccccc3[nH]2)n1`, in the series with Rattus norvegicus [2], the inhibition in vivo at 100 mg/kg stood at 30%.

For the compound `Cc1cccnc1-c1nc2ccccc2[nH]1`, the inhibition in vivo at 100 mg/kg in the series with Rattus norvegicus [2] was 17%.

For `CCc1cccc(-c2nc3cc(C)ccc3[nH]2)n1`, the inhibition in vivo at 100 mg/kg with Rattus norvegicus [1] was determined as 10%.

With `COc1ccc2[nH]c(-c3cccc(C)n3)nc2c1`, in the series on Rattus norvegicus [3], the inhibition in vivo at 200 mg/kg was determined as 39%. Further, in the series on Rattus norvegicus [1], the inhibition in vivo at 100 mg/kg was found to be 40%. Also, the Activity with Mus musculus came out at 1. The compound further yielded a 50% lethal dose (LD50) in series [4] of 3730 mg/kg.

As to `Cc1ccc2[nH]c(-c3cccc(C)n3)nc2c1`, the inhibition in vivo at 200 mg/kg in the series with Rattus norvegicus [3] came out at 67%. Besides, the inhibition in vivo at 100 mg/kg in the series with Rattus norvegicus [1] amounted to 42%. This compound also yielded an Activity with Mus musculus of 1. In series [4], the LD50 worked out at 812 mg/kg.

`CCc1ccc(-c2nc3ccccc3n2CC(=O)OC)nc1`: the inhibition in vivo at 100 mg/kg in the series on Rattus norvegicus [1] was found to be 9%.

In the case of `Cc1ccc(-c2nc3cc(C)ccc3[nH]2)nc1`, in the series on Rattus norvegicus [2], the inhibition in vivo at 100 mg/kg amounted to 7%.

As for `OCc1ccc(-c2nc3ccccc3[nH]2)nc1`, in the series on Rattus norvegicus [2], the inhibition in vivo at 100 mg/kg is -10%.

For the compound `Cc1ccc(-c2nc3ccccc3[nH]2)nc1`, the inhibition in vivo at 100 mg/kg in the series on Rattus norvegicus [2] was determined as 19%.

For the compound `CCc1ccc(-c2nc3cc(N)ccc3[nH]2)nc1`, the inhibition in vivo at 100 mg/kg in the series with Rattus norvegicus [1] was found to be 25%.

Regarding `Cc1ccc(-c2nc3ccccc3[nH]2)nc1C`, in the series on Rattus norvegicus [1], the inhibition in vivo at 100 mg/kg amounted to 37%.

As to `CCc1ccc(-c2nc3ccccc3n2C)nc1`, the inhibition in vivo at 100 mg/kg with Rattus norvegicus [1] is 5%.

Consider `CCc1ccc(-c2nc3cc(NC(C)=O)ccc3[nH]2)nc1`, for which the inhibition in vivo at 100 mg/kg in the series with Rattus norvegicus [1] was determined as 5%.

Consider `NC(=O)c1cccc(-c2nc3ccccc3[nH]2)n1`, for which, in the series on Rattus norvegicus [2], the inhibition in vivo at 100 mg/kg was 13%.

In the case of `Cc1ccc(-c2nc3ccccc3n2CC(=O)N2CCCC2)nc1`, in the series with Rattus norvegicus [1], the inhibition in vivo at 100 mg/kg was 14%.

Consider `CCc1ccc(-c2nc3ccccc3n2CC(=O)N2CCN(CCO)CC2)nc1`, for which the inhibition in vivo at 100 mg/kg with Rattus norvegicus [1] was 4%.

On to `Oc1cccc(-c2nc3ccccc3[nH]2)n1`, for which, in the series on Rattus norvegicus [2], the inhibition in vivo at 100 mg/kg was -7%.

`Cc1ccc2[nH]c(-c3ccc(C)c(C)n3)nc2c1`: the inhibition in vivo at 100 mg/kg in the series on Rattus norvegicus [1] is -19%.

Turning to `Clc1ccc2nc(-c3ccccn3)[nH]c2c1`, the inhibition in vivo at 100 mg/kg in the series with Rattus norvegicus [2] is 36%.

For the compound `CCCCc1ccc(-c2nc3ccccc3[nH]2)nc1`, the inhibition in vivo at 100 mg/kg with Rattus norvegicus [2] was -16%.

`OCc1cccc(-c2nc3ccccc3[nH]2)n1`: the inhibition in vivo at 100 mg/kg in the series with Rattus norvegicus [2] is -13%.

Take `CCc1ccc(-c2nc3cc([N+](=O)[O-])ccc3[nH]2)nc1`: the inhibition in vivo at 100 mg/kg with Rattus norvegicus [1] was -5%.

Regarding `Cc1ccc(-c2nc3ccccc3n2CC(=O)N2CCCCC2)nc1`, the inhibition in vivo at 100 mg/kg with Rattus norvegicus [1] came to 2%.

For `Cc1ccc(-c2nc3ccccc3n2CCN(C)C)nc1`, the inhibition in vivo at 100 mg/kg with Rattus norvegicus [1] was determined as 12%.

`Cc1ccnc(-c2nc3ccccc3[nH]2)c1`: the inhibition in vivo at 100 mg/kg with Rattus norvegicus [2] was -4%.

In the case of `COC(=O)Cn1c(-c2ccccn2)nc2ccccc21`, the inhibition in vivo at 100 mg/kg in the series on Rattus norvegicus [1] was -17%.

Take `Cc1ccc2[nH]c(-c3cccc(Cl)n3)nc2c1`: in the series with Rattus norvegicus [2], the inhibition in vivo at 100 mg/kg is 36%.

Consider `Cc1ccc2[nH]c(-c3cccc(O)n3)nc2c1`, for which the inhibition in vivo at 100 mg/kg in the series on Rattus norvegicus [1] was -6%.

For `CCc1ccc(-c2nc3ccccc3n2-c2ccccc2)nc1`, in the series on Rattus norvegicus [1], the inhibition in vivo at 100 mg/kg was 12%.

Consider `Cc1ccc(-c2nc3cc(Cl)ccc3[nH]2)nc1`, for which the inhibition in vivo at 100 mg/kg with Rattus norvegicus [1] was -5%.

As to `CCc1cccc(-c2nc3cc(Cl)ccc3[nH]2)n1`, the inhibition in vivo at 100 mg/kg with Rattus norvegicus [1] worked out at 3%.

As to `Cc1ccc2nc(-c3ccccn3)[nH]c2c1`, in the series on Rattus norvegicus [2], the inhibition in vivo at 100 mg/kg is 35%.

On to `Cc1ccc(-c2nc3ccccc3n2CC(=O)N2CCN(C)CC2)nc1`, for which, in the series on Rattus norvegicus [1], the inhibition in vivo at 100 mg/kg was found to be 11%.

On to `CCc1ccc(-c2nc3cc(O)ccc3[nH]2)nc1`, for which the inhibition in vivo at 100 mg/kg in the series with Rattus norvegicus [1] was determined as 25%.

As for `CCc1ccc(-c2nc3ccccc3n2CC(=O)N2CCCC2)nc1`, the inhibition in vivo at 100 mg/kg with Rattus norvegicus [1] is -5%.

`COc1cccc(-c2nc3cc(C)ccc3[nH]2)n1`: in the series on Rattus norvegicus [1], the inhibition in vivo at 100 mg/kg stood at 32%.

For the compound `c1ccc(-c2nc3ccccc3[nH]2)nc1`, the inhibition in vivo at 100 mg/kg with Rattus norvegicus [2] turned out to be 22%.
